Assay results taken from patent publication US20090111798A1, “5,6-DIHYDRO-1H-PYRIDIN-2-ONE COMPOUNDS” (priority 2006, published 2009).
pIC50: −log10 of the molar value. Where a name gives a salt, the structure may show the parent alone.

Target: NS5B polymerase (Hepatitis C virus genotype 1b, UniProt P26663)
Experiment: biochemical
Details: NS5B polymerase inhibition; 20 nM enzyme, 75 min at 28° C.
Method: Compounds were tested for HCV polymerase inhibition. Assays were performed in a 96-well streptavidin-coated FlashPlate using 20 nM enzyme, 0.5μ Ci of [α-^33P]GTP, 0.6 μM GTP, and 250 nM 5′biotinylated oligo (rG13)/poly rC in 20 mM Tris-HCl, pH 7.5, 5 mM MgCl2, 5 mM dithiothreitol, 0.1 g/L bovine serum albumin, and 100 U/mL RNAse inhibitor. The reaction was stopped by aspiration after 75 min at 28° C. and the plate was washed several times. After washing and drying the plate, incorporated radioactivity was counted using a Microbeta scintillation counter. IC50 values were calculated relative to the uninhibited control and inhibition data were fitted to a 4-parameter IC50 equation.

Chain of NS5B polymerase (P26663 2420-3010): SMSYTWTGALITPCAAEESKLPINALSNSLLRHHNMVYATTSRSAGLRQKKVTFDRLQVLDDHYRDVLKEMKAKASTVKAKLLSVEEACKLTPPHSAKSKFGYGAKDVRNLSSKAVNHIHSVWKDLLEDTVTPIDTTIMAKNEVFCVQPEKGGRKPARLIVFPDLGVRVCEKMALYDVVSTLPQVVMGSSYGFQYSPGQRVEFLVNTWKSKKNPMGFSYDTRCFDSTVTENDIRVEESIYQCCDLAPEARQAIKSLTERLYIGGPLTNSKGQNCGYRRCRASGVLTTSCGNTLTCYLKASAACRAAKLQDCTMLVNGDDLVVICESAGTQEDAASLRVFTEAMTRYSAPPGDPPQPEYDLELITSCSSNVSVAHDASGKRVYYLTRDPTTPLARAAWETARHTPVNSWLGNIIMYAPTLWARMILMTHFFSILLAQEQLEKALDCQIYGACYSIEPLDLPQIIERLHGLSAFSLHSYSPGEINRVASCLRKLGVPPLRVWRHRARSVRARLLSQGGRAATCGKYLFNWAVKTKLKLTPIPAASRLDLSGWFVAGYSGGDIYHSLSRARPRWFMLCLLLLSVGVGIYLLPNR

Row | Compound | pIC50
1 | O=C1C(C2=NS(=O)(=O)c3cc(C4CCCS4(=O)=O)ccc3N2)=C(O)[C@@H]2CCC[C@@H]2N1Cc1ccc(F)cc1 (mixture of isomers) [Example 45, (4aR,7aS)-3-[7-(1,1-Dioxo-tetrahydro-1λ^6-thiophen-2-yl)-1,1-dioxo-1,4-dihydro-1λ^6-benzo[1,2,4]thiadiazin-3-yl]-1-(4-fluoro-benzyl)-4-hydroxy-1,4a,5,6,7,7a-hexahydro-[1]pyrindin-2-one] | 7.00 to 7.70
2 | O=C1C(C2=NS(=O)(=O)c3ccccc3N2)=C(O)C2CCCC2N1Cc1ccc(F)cc1 (mixture of isomers) [Example 51] | 6.00 to 7.00
3 | CS(=O)(=O)Nc1ccc2c(c1)S(=O)(=O)N=C(C1=C(O)C3CCCCCC3N(CCC3CC3)C1=O)N2 (mixture of isomers) [Example 58, N-{3-[1-(2-Cyclopropyl-ethyl)-4-hydroxy-2-oxo-2,4a,5,6,7,8,9,9a-octahydro-1H-cyclohepta[b]pyridin-3-yl]-1,1-dioxo-1,4-dihydro-1λ^6-benzo[1,2,4]thiadiazin-7-yl}-methanesulfonamide] | 7.00 to 7.70
4 | CS(=O)(=O)Nc1ccc2c(c1)S(=O)(=O)N=C(C1=C(O)[C@@H]3CCC[C@@H]3N(Cc3ccc(F)cc3)C1=O)N2 (relative stereo) [Example 1, cis-N-{3-[1-(4-Fluoro-benzyl)-4-hydroxy-2-oxo-2,4-a,5,6,7,7a-hexahydro-1H-[1]pyrindin-3-yl]-1,1-dioxo-1,4-dihydro-1λ^6-benzo[1,2,4]thiadiazin-7-yl}-methanesulfonamide] | > 7.70
5 | CS(=O)(=O)Nc1ccc2c(c1)S(=O)(=O)N=C(C1=C(O)[C@@H]3CCC[C@@H]3N(Cc3ccccn3)C1=O)N2 (relative stereo) [Example 4, cis-N-[3-(4-Hydroxy-2-oxo-1-pyridin-2-ylmethyl-2,4-a,5,6,7,7a-hexahydro-1H-[1]pyrindin-3-yl)-1,1-dioxo-1,4-dihydro-1λ^6-benzo[1,2,4]thiadiazin-7-yl]-methanesulfonamide] | 6.00 to 7.00
6 | CS(=O)(=O)Nc1ccc2c(c1)S(=O)(=O)N=C(C1=C(O)[C@@H]3CCC[C@@H]3N(Cc3ccc(F)cn3)C1=O)N2 (relative stereo) [Example 5, cis-N-{3-[1-(5-Fluoro-pyridin-2-ylmethyl)-4-hydroxy-2-oxo-2,4-a,5,6,7,7a-hexahydro-1H-[1]pyrindin-3-yl]-1,1-dioxo-1,4-dihydro-1λ^6-benzo[1,2,4]thiadiazin-7-yl}-methanesulfonamide] | 6.00 to 7.00
7 | CN(C)CCN1C(=O)C(C2=NS(=O)(=O)c3cc(NS(C)(=O)=O)ccc3N2)=C(O)[C@@H]2CCC[C@@H]21 (relative stereo) [Example 6] | 4.00 to 6.00
8 | CS(=O)(=O)Nc1ccc2c(c1)S(=O)(=O)N=C(C1=C(O)[C@@H]3CCC[C@@H]3N(Cc3ccccc3)C1=O)N2 (relative stereo) [Example 7, cis-N-[3-(1-Benzyl-4-hydroxy-2-oxo-2,4-a,5,6,7,7a-hexahydro-1H-[1]pyrindin-3-yl)-1,1-dioxo-1,4-dihydro-1λ^6-benzo[1,2,4]thiadiazin-7-yl]-methanesulfonamide] | 7.00 to 7.70
9 | CS(=O)(=O)Nc1ccc2c(c1)S(=O)(=O)N=C(C1=C(O)[C@@H]3CCC[C@@H]3N(Cc3cccc(F)c3)C1=O)N2 (relative stereo) [Example 8] | > 7.70
10 | CS(=O)(=O)Nc1ccc2c(c1)S(=O)(=O)N=C(C1=C(O)[C@@H]3CCC[C@@H]3N(CCc3ccccc3)C1=O)N2 (relative stereo) [Example 9, cis-N-[3-(4-Hydroxy-2-oxo-1-phenethyl-2,4-a,5,6,7,7a-hexahydro-1H-[1]pyrindin-3-yl)-1,1-dioxo-1,4-dihydro-1λ^6-benzo[1,2,4]thiadiazin-7-yl]-methanesulfonamide] | 6.00 to 7.00
11 | CS(=O)(=O)Nc1ccc2c(c1)S(=O)(=O)N=C(C1=C(O)[C@@H]3CCC[C@@H]3N(C3CCCC3)C1=O)N2 (relative stereo) [Example 10, cis-N-[3-(1-Cyclopentyl-4-hydroxy-2-oxo-2,4-a,5,6,7,7a-hexahydro-1H-[1]pyrindin-3-yl)-1,1-dioxo-1,4-dihydro-1λ^6-benzo[1,2,4]thiadiazin-7-yl]-methanesulfonamide] | 4.00 to 6.00
12 | CC(C)CCN1C(=O)C(C2=NS(=O)(=O)c3cc(NS(C)(=O)=O)ccc3N2)=C(O)[C@H]2CCC[C@H]21 (relative stereo) [Example 17, cis-N-{3-[2-(3-Methylbutyl)-5-hydroxy-3-oxo-2-aza-bicyclo[4.3.0]non-4-en-4-yl]-1,1-dioxo-1,4-dihydro-1λ^6-benzo[1,2,4]thiadiazin-7-yl}-methanesulfonamide] | > 7.70
13 | CC(C)(C)CCN1C(=O)C(C2=NS(=O)(=O)c3cc(NS(C)(=O)=O)ccc3N2)=C(O)[C@H]2CCC[C@H]21 (relative stereo) [Example 18, cis-N-{3-[2-(3,3-Dimethylbutyl)-5-hydroxy-3-oxo-2-aza-bicyclo[4.3.0]non-4-en-4-yl]-1,1-dioxo-1,4-dihydro-1λ^6-benzo[1,2,4]thiadiazin-7-yl}-methanesulfonamide] | > 7.70
14 | CS(=O)(=O)Nc1ccc2c(c1)S(=O)(=O)N=C(C1=C(O)[C@@H]3CCC[C@@H]3N(CCC3CC3)C1=O)N2 (relative stereo) [Example 19, cis-N-{3-[2-Cyclopropylethyl-5-hydroxy-3-oxo-2-aza-bicyclo[4.3.0]non-4-en-4-yl]-1,1-dioxo-1,4-dihydro-1λ^6-benzo[1,2,4]thiadiazin-7-yl}-methanesulfonamide] | 7.00 to 7.70
15 | NCCS(=O)(=O)Nc1ccc2c(c1)S(=O)(=O)N=C(C1=C(O)[C@@H]3CCC[C@@H]3N(Cc3ccc(F)cc3)C1=O)N2 (relative stereo) [Example 24, cis-2-Amino-ethanesulfonic acid {3-[1-(4-fluoro-benzyl)-4-hydroxy-2-oxo-2,4-a,5,6,7,7a-hexahydro-1H-[1]pyrindin-3-yl]-1,1-dioxo-1,4-dihydro-1λ^6 benzo[1,2,4]thiadiazin-7-yl}-amide] | 7.00 to 7.70
16 | CS(=O)(=O)Nc1ccc2c(c1)S(=O)(=O)C=C(C1=C(O)[C@@H]3CCC[C@@H]3N(Cc3ccc(F)cc3)C1=O)N2 (relative stereo) [Example 25, cis-N-{3-[1-(4-Fluoro-benzyl)-4-hydroxy-2-oxo-2,4-a,5,6,7,7a-hexahydro-1H-[1]pyrindin-3-yl]-1,1-dioxo-1,4-dihydro-1λ^6-benzo[1,4]thiazin-7-yl}-methanesulfonamide] | 7.00 to 7.70
17 | CS(=O)(=O)Nc1ccc2c(c1)S(=O)(=O)N=C(C1=C(O)[C@@H]3CC=CC[C@@H]3N(Cc3ccc(F)cc3)C1=O)N2 (relative stereo) [Example 37, cis-N-{3-[1-(4-Fluoro-benzyl)-4-hydroxy-2-oxo-1,2,4a,5,8,8a-hexahydro-quinolin-3-yl]-1,1-dioxo-1,4-dihydro-1λ^6 benzo[1,2,4]thiadiazin-7-yl}-methanesulfonamide] | 7.00 to 7.70
18 | CN(C)N1C(=O)C(C2=NS(=O)(=O)c3cc(NS(C)(=O)=O)ccc3N2)=C(O)[C@@H]2CCC[C@@H]21 (relative stereo) [Example 38, cis-N-[3-(1-Dimethylamino-4-hydroxy-2-oxo-2,4-a,5,6,7,7a-hexahydro-1H-[1]pyrindin-3-yl)-1,1-dioxo-1,4-dihydro-1λ^6-benzo[1,2,4]thiadiazin-7-yl]-methanesulfonamide hydrochloride] | 4.00 to 6.00
19 | CS(=O)(=O)Nc1ccc2c(c1)S(=O)(=O)N=C(C1=C(O)[C@@H]3CCC[C@@H]3N(NC3CCC3)C1=O)N2 (relative stereo) [Example 41, cis-N-[3-(1-Cyclobutylamino-4-hydroxy-2-oxo-2,4-a,5,6,7,7a-hexahydro-1H-[1]pyrindin-3-yl)-1,1-dioxo-1,4-dihydro-1λ^6-benzo[1,2,4]thiadiazin-7-yl]-methanesulfonamide trifluoroacetic acid salt] | 7.00 to 7.70
20 | CS(=O)(=O)Nc1ccc2c(c1)S(=O)(=O)N=C(C1=C(O)[C@@H]3CCC[C@@H]3N(C3CCCCC3)C1=O)N2 (relative stereo) [Example 43, cis-N-[3-(1-Cyclohexyl-4-hydroxy-2-oxo-2,4-a,5,6,7,7a-hexahydro-1H-[1]pyrindin-3-yl)-1,1-dioxo-1,4-dihydro-1λ^6-benzo[1,2,4]thiadiazin-7-yl]-methanesulfonamide] | 6.00 to 7.00
21 | CS(=O)(=O)Nc1ccc2c(c1)S(=O)(=O)N=C(C1=C(O)[C@@H]3CCC[C@@H]3N(CC3CCC3)C1=O)N2 (relative stereo) [Example 47, cis-N-[3-(1-Cyclobutylmethyl-4-hydroxy-2-oxo-2,4-a,5,6,7,7a-hexahydro-1H-[1]pyrindin-3-yl)-1,1-dioxo-1,4-dihydro-1λ^6-benzo[1,2,4]thiadiazin-7-yl]-methanesulfonamide] | 7.00 to 7.70
22 | CS(=O)(=O)Nc1ccc2c(c1)S(=O)(=O)N=C(C1=C(O)[C@@H]3CCC[C@@H]3N(c3ccccc3)C1=O)N2 (relative stereo) [Example 48, cis-N-[3-(4-Hydroxy-2-oxo-1-phenyl-2,4-a,5,6,7,7a-hexahydro-1H-[1]pyrindin-3-yl)-1,1-dioxo-1,4-dihydro-1λ^6-benzo[1,2,4]thiadiazin-7-yl]-methanesulfonamide] | 4.00 to 6.00
23 | CN1C(=O)C(C2=NS(=O)(=O)c3cc(NS(C)(=O)=O)ccc3N2)=C(O)[C@@H]2CCC[C@@H]21 (relative stereo) [Example 53, cis-N-[3-(4-Hydroxy-1-methyl-2-oxo-2,4a,5,6,7,7a-hexahydro-1H-[1]pyrindin-3-yl)-1,1-dioxo-1,4-dihydro-1λ^6-benzo[1,2,4]thiadiazin-7-yl]-methanesulfonamide] | 4.00 to 6.00
24 | CCN1C(=O)C(C2=NS(=O)(=O)c3cc(NS(C)(=O)=O)ccc3N2)=C(O)[C@@H]2CCC[C@@H]21 (relative stereo) [Example 54, cis-N-[3-(1-Ethyl-4-hydroxy-2-oxo-2,4a,5,6,7,7a-hexahydro-1H-[1]pyrindin-3-yl)-1,1-dioxo-1,4-dihydro-1λ^6-benzo[1,2,4]thiadiazin-7-yl]-methanesulfonamide] | 6.00 to 7.00
